The test system of assay [1] is TGF-β-stimulated SMAD3 phosphorylation in BEAS-2B cells. Description: Cellular ALK5 potency assay, inhibition of TGF-β stimulated pSMAD3 formation in BEAS-2B cells. Format: cell-based. The conditions noted are these: Homo sapiens; inhibition of TGF-β stimulated pSMAD3 formation, BEAS-2B cells; read-out: BEAS2B pIC50 (converted). The method, boiled down: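 BEAS-2B human lung epithelial cells pre-treated 1 h at 37° C with compound in HBSS/25 mM HEPES/1% BSA, then stimulated 30 min with 10 ng/mL TGF-β (final). Lysates assayed for pSMAD3 by AlphaLISA; pIC50 from dose-dependent change versus stimulated untreated cells.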

Assay [2] concerns the target T1, recombinant human ALK5 (TGF-βR1) protein (Homo sapiens, UniProt P36897).
T1 construct: purchased Life Technologies PR9075A
T1 sequence (P36897 34-503): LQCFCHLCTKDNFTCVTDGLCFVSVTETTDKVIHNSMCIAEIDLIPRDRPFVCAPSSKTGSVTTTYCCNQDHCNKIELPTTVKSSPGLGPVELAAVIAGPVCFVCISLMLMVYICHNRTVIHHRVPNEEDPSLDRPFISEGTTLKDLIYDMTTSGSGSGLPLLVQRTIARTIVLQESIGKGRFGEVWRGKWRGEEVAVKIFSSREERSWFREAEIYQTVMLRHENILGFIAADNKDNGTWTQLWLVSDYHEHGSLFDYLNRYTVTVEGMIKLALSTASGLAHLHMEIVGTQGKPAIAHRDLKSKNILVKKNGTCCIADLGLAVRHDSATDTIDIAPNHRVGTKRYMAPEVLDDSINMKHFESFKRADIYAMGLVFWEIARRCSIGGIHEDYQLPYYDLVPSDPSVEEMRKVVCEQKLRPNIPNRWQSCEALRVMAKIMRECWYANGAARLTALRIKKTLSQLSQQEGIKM
The experiment in a line: Biochemical ALK5 (TGF-βR1) assay to measure pKi (LANCE Ultra ULight kinase assay). The conditions noted are these: apparent pKi from pIC50 by Cheng-Prusoff, read-out: ALK5 pKi (converted). The procedure, abridged: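 After a 60 min room-temperature preincubation of ALK5 with compound, phosphorylation proceeds 60 min at 37 °C on ATP addition (125 μM as 5× stock). Detection: Eu-labelled phospho-Thr1342 Topo IIα antibody in EDTA buffer, pH 7.0; emission 665 nm.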
For orientation: Time-resolved FRET reads energy transfer from a long-lived donor to a nearby acceptor.

Turning to `Cc1cccc(-c2[nH]cnc2-c2ccc3ncc(-c4ccc(C(=O)OCCN5CC[C@@H](N)C5)cn4)cc3c2)n1` [Compound 1167, 2-[(3R)-3-aminopyrrolidin-1-yl]ethyl 6-[6-[5-(6-methyl-2-pyridyl)-1H-imidazol-4-yl]-3-quinolyl]pyridine-3-carboxylate], the IC50 in assay [1] is 25.1 to 158 nM. Besides, in assay [2], the Ki was 0.0398 to 0.316 nM.
The corresponding values for `Cc1cccc(-c2[nH]cnc2-c2ccc3ncc(-c4ccc(C(=O)OC5CCNCC5)cn4)cc3c2)n1` [Compound 1094, 4-piperidyl 6-[6-[5-(6-methyl-2-pyridyl)-1H-imidazol-4-yl]-3-quinolyl]pyridine-3-carboxylate] are 25.1 to 158 nM and under 0.0316 nM.
For the compound `Cc1cccc(-c2[nH]cnc2-c2ccc3ncc(C(=O)OCCCN4CCNCC4)cc3c2)n1` [Compound 897, 3-(piperazin-1-yl)propyl 6-(5-(6-methylpyridin-2-yl)-1H-imidazol-4-yl)quinoline-3-carboxylate], the IC50 in assay [1] was 25.1 to 158 nM. In assay [2], the Ki is 0.0398 to 0.316 nM.
Regarding `Cc1cccc(-c2[nH]ncc2-c2ccc3ncc(C(=O)O[C@H]4CCNC4)cc3n2)n1` [Compound 210, [(3S)-pyrrolidin-3-yl]6-[5-(6-methyl-2-pyridyl)-1H-pyrazol-4-yl]-1,5-naphthyridine-3-carboxylate], in assay [1], the IC50 was 25.1 to 158 nM. The Ki in assay [2] was 0.398 to 3.16 nM.
Regarding `Cc1nc(-c2n[nH]cc2-c2ccc3ncc(-c4cnn(C[C@H]5C[C@@H](N)C5)c4)cc3n2)ccc1F` [Compound 517, 3-[[4-[6-[3-(5-fluoro-6-methyl-2-pyridyl)-1H-pyrazol-4-yl]-1,5-naphthyridin-3-yl]pyrazol-1-yl]methyl]cyclobutanamine], the IC50 in assay [1] was 25.1 to 158 nM. Also, in assay [2], the Ki was 0.0398 to 0.316 nM.
`Cc1cccc(-c2[nH]cnc2-c2ccc3ncc(-c4cnn(C5CCCNC5)c4)cc3c2)n1` (stereo not shown) [Compound 405, 6-[5-(6-methyl-2-pyridyl)-1H-imidazol-4-yl]-3-[1-(3-piperidyl)pyrazol-4-yl]quinoline]: the IC50 in assay [1] is 25.1 to 158 nM. In addition, the Ki in assay [2] is under 0.0316 nM.
With `Cc1cccc(-c2n[nH]cc2-c2ccc3ncc(-c4nc(CN5CCN(C(C)C)CC5)co4)cc3n2)n1` [Compound 246, 4-[(4-isopropylpiperazin-1-yl)methyl]-2-[6-[3-(6-methyl-2-pyridyl)-1H-pyrazol-4-yl]-1,5-naphthyridin-3-yl]oxazole], in assay [1], the IC50 is 25.1 to 158 nM. Also, the Ki in assay [2] is 0.0398 to 0.316 nM.
With `Cc1cccc(-c2n[nH]cc2-c2ccc3ncc(N4CC(C)NC(C)C4)cc3n2)n1` (stereo not shown) [Compound 28, 7-(3,5-dimethylpiperazin-1-yl)-2-[3-(6-methyl-2-pyridyl)-1H-pyrazol-4-yl]-1,5-naphthyridine], in assay [1], the IC50 is 25.1 to 158 nM. Besides, the Ki in assay [2] was under 0.0316 nM.
Take `CNCCn1cc(-c2cnc3ccc(-c4c(-c5cccc(C)n5)nc5ccccn45)nc3c2)cn1` [Compound 527, N-methyl-2-(4-(6-(2-(6-methylpyridin-2-yl)imidazo[1,2-a]pyridin-3-yl)-1,5-naphthyridin-3-yl)-1H-pyrazol-1-yl)ethan-1-amine]: the IC50 in assay [1] is 25.1 to 158 nM. In addition, in assay [2], the Ki is 0.0398 to 0.316 nM.
As for `Cc1cccc(-c2[nH]cnc2-c2ccc3ncc(-c4cc(C(=O)O[C@H]5CCNC5)cs4)cc3c2)n1` [Compound 885, [(3S)-pyrrolidin-3-yl] 5-[6-[5-(6-methyl-2-pyridyl)-1H-imidazol-4-yl]-3-quinolyl]thiophene-3-carboxylate], the IC50 in assay [1] is 25.1 to 158 nM. For the same compound, the Ki in assay [2] is under 0.0316 nM.
The corresponding values for `Cc1nc(-c2nc3ccccn3c2-c2ccc3ncc(-c4cnn(C5CCCNC5)c4)cc3n2)ccc1F` (stereo not shown) [Compound 576, 2-[2-(5-fluoro-6-methyl-2-pyridyl)imidazo[1,2-a]pyridin-3-yl]-7-[1-(3-piperidyl)pyrazol-4-yl]-1,5-naphthyridine] are 25.1 to 158 nM and 0.0398 to 0.316 nM.
Taken in the same sequence, the figures for `Cc1cccc(-c2[nH]cnc2-c2ccc3ncc(C(=O)OCCN4CCNCC4)cc3c2)n1` [Compound 756, 2-(piperazin-1-yl)ethyl 6-(5-(6-methylpyridin-2-yl)-1H-imidazol-4-yl)quinoline-3-carboxylate] were 25.1 to 158 nM and 0.0398 to 0.316 nM.
Consider `Cc1cccc(-c2[nH]cnc2-c2ccc3ncc(-c4cccc(N5CCNCC5)n4)cc3c2)n1` [Compound 1100, 6-[5-(6-methyl-2-pyridyl)-1H-imidazol-4-yl]-3-(6-piperazin-1-yl-2-pyridyl)quinoline], for which, in assay [1], the IC50 was under 20 nM. The Ki in assay [2] is 0.0398 to 0.316 nM.
`Cc1cccc(-c2[nH]cnc2-c2ccc3ncc(-c4csc(C(=O)OCCN5CCC[C@H](N)C5)c4)cc3c2)n1` [Compound 1250, 2-[(3S)-3-amino-1-piperidyl]ethyl 4-[6-[5-(6-methyl-2-pyridyl)-1H-imidazol-4-yl]-3-quinolyl]thiophene-2-carboxylate]: the IC50 in assay [1] is 25.1 to 158 nM. Also, the Ki in assay [2] is 0.398 to 3.16 nM.
The corresponding values for `Cc1cccc(-c2n[nH]cc2-c2ccc3ncc(-c4cnn(CCN)c4)cc3c2)n1` [Compound 435, 2-[4-[6-[3-(6-methyl-2-pyridyl)-1H-pyrazol-4-yl]-3-quinolyl]pyrazol-1-yl]ethanamine] are 25.1 to 158 nM and under 0.0316 nM.
Taken in the same sequence, the figures for `Cc1nc(-c2n[nH]cc2-c2ccc3ncc(-c4nnc5n4CCNC5)cc3n2)ccc1F` [Compound 631, 2-[3-(5-fluoro-6-methyl-2-pyridyl)-1H-pyrazol-4-yl]-7-(5,6,7,8-tetrahydro-[1,2,4]triazolo[4,3-a]pyrazin-3-yl)-1,5-naphthyridine] were 1580 to 10000 nM and 3.98 to 31.6 nM.
As to `Cc1cccc(-c2[nH]cnc2-c2ccc3ncc(-c4csc(C(=O)OC[C@H]5CCCN5)c4)cc3c2)n1` [Compound 1219, [(2R)-pyrrolidin-2-yl]methyl 4-[6-[5-(6-methyl-2-pyridyl)-1H-imidazol-4-yl]-3-quinolyl]thiophene-2-carboxylate], the IC50 in assay [1] was 25.1 to 158 nM. In assay [2], the Ki is under 0.0316 nM.
As to `Cc1cccc(-c2n[nH]cc2-c2ccc3ncc(NC(=O)CCCN4CCN(C(C)C)CC4)cc3n2)n1` [Compound 99, 4-(4-isopropylpiperazin-1-yl)-N-[6-[3-(6-methyl-2-pyridyl)-1H-pyrazol-4-yl]-1,5-naphthyridin-3-yl]butanamide], the IC50 in assay [1] is 25.1 to 158 nM. The Ki in assay [2] is 0.0398 to 0.316 nM.
Turning to `Cc1cccc(-c2n[nH]cc2-c2ccc3ncc(-c4cnc(N)s4)cc3n2)n1` [Compound 333, 5-[6-[3-(6-methyl-2-pyridyl)-1H-pyrazol-4-yl]-1,5-naphthyridin-3-yl]thiazol-2-amine], the IC50 in assay [1] is 25.1 to 158 nM. The Ki in assay [2] was 0.0398 to 0.316 nM.
Turning to `Cc1cccc(-c2n[nH]cc2-c2ccc3nccc(CN(C)C)c3n2)n1` [Compound 830, N,N-dimethyl-1-[6-[3-(6-methyl-2-pyridyl)-1H-pyrazol-4-yl]-1,5-naphthyridin-4-yl]methanamine], in assay [1], the IC50 is 25.1 to 158 nM. Further, the Ki in assay [2] was 3.98 to 31.6 nM.
Taken in the same sequence, the figures for `Cc1cccc(-c2n[nH]cc2-c2ccc3ncc(NC(C)(C)CN4CCN(C)CC4)cc3n2)n1` [Compound 556, N-[1,1-dimethyl-2-(4-methylpiperazin-1-yl)ethyl]-6-[3-(6-methyl-2-pyridyl)-1H-pyrazol-4-yl]-1,5-naphthyridin-3-amine] were 25.1 to 158 nM and 0.398 to 3.16 nM.
Take `CC(=O)Oc1ccnc2ccc(-c3c[nH]nc3-c3cccc(C)n3)nc12` [Compound 857, [6-[3-(6-methyl-2-pyridyl)-1H-pyrazol-4-yl]-1,5-naphthyridin-4-yl]acetate]: the IC50 in assay [1] is 25.1 to 158 nM. For the same compound, the Ki in assay [2] is 0.398 to 3.16 nM.
On to `COc1[nH]nc(-c2cccc(C)n2)c1-c1ccc2ncc(N3CCNCC3)cc2n1` [Compound 33, 2-(5-methoxy-3-(6-methylpyridin-2-yl)-1H-pyrazol-4-yl)-7-(piperazin-1-yl)-1,5-naphthyridine], for which the IC50 in assay [1] was 25.1 to 158 nM. The Ki in assay [2] was 0.0398 to 0.316 nM.
Regarding `Cc1cccc(-c2[nH]cnc2-c2ccc3ncc(N4CC(N)C4)cc3c2)n1` [Compound 460, 1-[6-[5-(6-methyl-2-pyridyl)-1H-imidazol-4-yl]-3-quinolyl]azetidin-3-amine], in assay [1], the IC50 was 25.1 to 158 nM. Moreover, the Ki in assay [2] was 0.0398 to 0.316 nM.
Consider `Cc1cccc(-c2nnn(Cc3ccccc3)c2-c2ccc3ncc(N4CCC(N(C)C)C4)cc3n2)n1` (racemic) [Compound 331, rac-(3S)-1-[6-[3-benzyl-5-(6-methyl-2-pyridyl)triazol-4-yl]-1,5-naphthyridin-3-yl]-N,N-dimethyl-pyrrolidin-3-amine], for which the IC50 in assay [1] is 200 to 1260 nM. Besides, in assay [2], the Ki was 0.0398 to 0.316 nM.
In the case of `Cc1cccc(-c2[nH]cnc2-c2ccc3ncc(C(=O)OC4CNC4)cc3c2)n1` [Compound 739, azetidin-3-yl 6-[5-(6-methyl-2-pyridyl)-1H-imidazol-4-yl]quinoline-3-carboxylate], in assay [1], the IC50 was 25.1 to 158 nM. In addition, the Ki in assay [2] was 0.0398 to 0.316 nM.

The record behind these values is patent US11590116B2 (THERAVANCE BIOPHARMA R&D IP, LLC, priority 2019, dated 2023).
